From patent publication US12433889B2 (priority 2021, dated 2025)
Converted amounts (≈) assume the structure as drawn.

What was measured:
M. abscessus B18104072 = assay: MIC by microbroth dilution, with and without CF sputum; assay type: cell-based; settings: Mycobacteroides abscessus
[1] = BCS class II; cited from earlier work
[2] = system: M. intracellulare DSM 43223; assay: MIC by microbroth dilution, with and without CF sputum; assay type: cell-based; settings: Mycobacterium intracellulare
M. Chimaera CIP 107892 = assay: as above; assay type: cell-based; settings: Mycobacterium intracellulare
M. abscessus B15029863 = assay: as above; assay type: cell-based; settings: Mycobacteroides abscessus
M. abscessus CIP104536 = assay: as above; assay type: cell-based; settings: Mycobacteroides abscessus
M. avium ATCC 700898 = assay: as above; assay type: cell-based; settings: Mycobacterium avium
M. avium B18101968 = assay: as above; assay type: cell-based; settings: Mycobacterium avium
[3] = humans, microcrystalline suspension in an oil-wax base; cited from earlier work
M. abscessus B12052284 = assay: MIC by microbroth dilution, with and without CF sputum; assay type: cell-based; settings: Mycobacteroides abscessus

MIC (M. abscessus B18104072; B18104072, + SP (10% CF sputum)): > 2 µg/mL
MIC (M. abscessus B18104072; B18104072, absence of sputum): 1 µg/mL (≈ 2.11 µM)
MIC ([2]; DSM43223, + SP (10% CF sputum)): > 2 µg/mL
MIC ([2]; DSM43223, absence of sputum): 1 µg/mL (≈ 2.11 µM)
MIC (M. Chimaera CIP 107892; CIP107892, + SP (10% CF sputum)): > 2 µg/mL
MIC (M. Chimaera CIP 107892; CIP107892, absence of sputum): 0.5 µg/mL (≈ 1.06 µM)
MIC (M. abscessus B15029863; B15029863, + SP (10% CF sputum)): > 2 µg/mL
MIC (M. abscessus B15029863; B15029863, absence of sputum): 2 µg/mL (≈ 4.22 µM)
MIC (M. abscessus CIP104536; CIP104536, + SP (10% CF sputum)): > 2 µg/mL
MIC (M. abscessus CIP104536; CIP104536, absence of sputum): 0.25 µg/mL (≈ 0.528 µM)
MIC (M. avium ATCC 700898; ATCC700898, + SP (10% CF sputum)): > 2 µg/mL
MIC (M. avium ATCC 700898; ATCC700898, absence of sputum): 0.25 µg/mL (≈ 0.528 µM)
MIC (M. avium B18101968; B18101968, + SP (10% CF sputum)): > 2 µg/mL
MIC (M. avium B18101968; B18101968, absence of sputum): 0.5 µg/mL (≈ 1.06 µM)
MIC (M. abscessus B12052284; B12052284, + SP (10% CF sputum)): > 2 µg/mL
MIC (M. abscessus B12052284; B12052284, absence of sputum): 2 µg/mL (≈ 4.22 µM)
Compound: CC(C)/N=c1\cc2n(-c3ccc(Cl)cc3)c3ccccc3nc-2cc1Nc1ccc(Cl)cc1 [Clofazimine, clofazimine]
solubility in water [1]: practically insoluble in water
absorption after oral administration [3]: 45-62%
